Source: PubChem BioAssay AID1963873 (Molecular Pharmacology Branch, DTP, NCI, 2024)
Activity calls are given as the source filed them. How the source made its calls: active means viability on the fitted dose curve at most 10% of control; inactive means the rest.

Test system: 276233-004-R-J1-PDC KRAS spheroids with HUVEC/MSC, viability
Experiment: Anticancer human tumor 276233-004-R-J1-PDC patient-derived colon adenocarcinoma cell line growth inhibition [KRAS2]
Details: for viability, T/C: stronger effect = lower value
Text: Multicellular complex tumor spheroid response to RAS pathway inhibitors in combination with a targeted agents in patient-derived cell lines with oncogenic KRAS variants from multiple cancer types
A high-throughput screen of multi-cell type tumor spheroids was designed to identify active combinations of targeted small molecules and KRAS pathway inhibitors. Complex spheroids include a stromal component modeled by human endothelial cells (HUVEC) and fibroblasts modeled by human mesenchymal stem cells (MSCs). The concentration ranges selected for each drug and investigational agent were based upon clinically achievable concentrations if the clinical Cmax of the agent was known.
Compounds. The drugs and investigational agents: BI-3406 (NSC825286), BAY-293 (NSC824723), batoprotafib (TNO155; NSC825523), sotorasib (AMG 510; NSC818433), MRTX1257 (NSC819558), elimusertib (BAY 1895344; NSC800525), molibresib (GSK525762; NSC774829), temuterkib (LY3214996; NSC803410), venetoclax (NSC766270), alisertib (NSC759677), olaparib (NSC753686), talazoparib (NSC767125), erdafitinib (NSC781556), ipatasertib (NSC767898), cabozantinib (NSC761068), nintedanib (NSC756659), abemaciclib (NSC768073), docetaxel (NSC628503), trametinib (NSC758246), and sapanisertib (NSC764658) were obtained from the National Cancer Institute (NCI) Developmental Therapeutics Program Chemical Repository. The FDA-approved anticancer drug set is available from the Developmental Therapeutics Program. […] The stock solutions were prepared in dimethyl sulfoxide (DMSO, Sigma-Aldrich, St. Louis, MO, cat. D2650) at 800-fold the tested concentration and stored at -70 degrees C prior to their use. All drugs and investigational agents were tested over a range starting from a high concentration at or near the clinical Cmax and decreasing in half-log increments. If the clinical Cmax for an agent had not been determined, the highest concentration tested was 10 microM.
Cell Culture. All cells were maintained in an incubator at 37 degrees C and 5% CO2 with 95% humidity. The PDC lines were cultured according to standard operating procedures established by the NCI PDMR (https://pdmr.cancer.gov/sops/default.htm). Briefly, all PDCs were thawed and cultured in Matrigel-coated flasks prepared with a working solution of 1X Ham's F-12 nutrient mix, without supplementation (Invitrogen, Waltham, MA, cat. 11765054), 100 U/mL penicillin-streptomycin (Invitrogen, cat. 15140122), and 2.5% Matrigel (Corning Inc., Corning, NY, cat. 354248) for the first three passages. All PDCs were cultured in complete DMEM/F-12 media containing advanced DMEM/F-12 (Invitrogen, cat. 12634028), 4.9% defined fetal bovine serum, heat inactivated (HyClone Laboratories Inc., Logan, UT, cat. SH30070.03HI), 389 ng/mL hydrocortisone (Sigma-Aldrich, cat. H4001), 9.7 ng/mL human EGF recombinant protein (Invitrogen, cat. PHG0313), 23.4 microg/mL adenine (Sigma-Aldrich, cat. A2786), 97.3 U/mL penicillin-streptomycin (Invitrogen, cat. 15140122), 1.9 mM L-glutamine (Invitrogen, cat. 25030081), and 9.7 microM Y-27632 dihydrochloride (Tocris Bioscience, Bristol, United Kingdom, cat. 1254). The PDCs were cultured in complete DMEM/F12 media without 9.7 microM Y-27632 dihydrochloride for at least two passages prior to the screen. The established cell line HOP-62 was cultured in RPMI 1640 medium, HEPES (Invitrogen, cat. 22400105) with 10% defined fetal bovine serum (HyClone Laboratories Inc., cat. SH30070.03) and 2 mM L-glutamine (Invitrogen, cat. 25030081). The pooled donor HUVEC were cultured in endothelial cell growth medium 2 (PromoCell, Heidelberg, Germany, cat. C-22011) and the hMSC were cultured in mesenchymal stem cell growth medium 2 (PromoCell, cat. C-28009). For all experiments, HUVEC and hMSC were used at passages </=5, while the malignant cell lines were used at passages </=15. […]

[1] = curve of first compound, second compound 0.1 µM
[2] = curve of first compound, second compound 0.316 µM
[3] = curve of first compound, second compound 1 µM
[4] = curve of first compound, second compound 3.16 µM
[5] = curve of first compound, second compound 10 µM
[6] = second compound 0.1 µM, first compound 0.000316 µM
[7] = second compound 0.1 µM, first compound 0.001 µM
[8] = second compound 0.1 µM, first compound 0.00316 µM
[9] = second compound 0.1 µM, first compound 0.01 µM
[10] = second compound 0.1 µM, first compound 0.0316 µM
[11] = second compound 0.316 µM, first compound 0.000316 µM
[12] = second compound 0.316 µM, first compound 0.001 µM
[13] = second compound 0.316 µM, first compound 0.00316 µM
[14] = second compound 0.316 µM, first compound 0.01 µM
[15] = second compound 0.316 µM, first compound 0.0316 µM
[16] = second compound 1 µM, first compound 0.000316 µM
[17] = second compound 1 µM, first compound 0.001 µM
[18] = second compound 1 µM, first compound 0.00316 µM
[19] = second compound 1 µM, first compound 0.01 µM
[20] = second compound 1 µM, first compound 0.0316 µM
[21] = second compound 3.16 µM, first compound 0.000316 µM
[22] = second compound 3.16 µM, first compound 0.001 µM
[23] = second compound 3.16 µM, first compound 0.00316 µM
[24] = second compound 3.16 µM, first compound 0.01 µM
[25] = second compound 3.16 µM, first compound 0.0316 µM
[26] = second compound 10 µM, first compound 0.000316 µM
[27] = second compound 10 µM, first compound 0.001 µM
[28] = second compound 10 µM, first compound 0.00316 µM
[29] = second compound 10 µM, first compound 0.01 µM
[30] = second compound 10 µM, first compound 0.0316 µM
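Wherever IC50 is given: cells exposed to agents for seven days before viability read.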
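Wherever viability, T/C is given: cells exposed to agents for seven days before viability read; 100% = DMSO vehicle control wells and lower values mean fewer viable cells.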

| Structure (SMILES) | IC50 [1] | IC50 [2] | IC50 [3] | IC50 [4] | IC50 [5] | viability, T/C [6] | viability, T/C [7] | viability, T/C [8] | viability, T/C [9] | viability, T/C [10] | viability, T/C [11] | viability, T/C [12] | viability, T/C [13] | viability, T/C [14] | viability, T/C [15] | viability, T/C [16] | viability, T/C [17] | viability, T/C [18] | viability, T/C [19] | viability, T/C [20] | other results |
| --- | --- | --- | --- | --- | --- | --- | --- | --- | --- | --- | --- | --- | --- | --- | --- | --- | --- | --- | --- | --- | --- |
| CN(C)C/C=C/C(=O)Nc1cc2c(Nc3ccc(F)c(Cl)c3)ncnc2cc1O[C@H]1CCOC1 + CC1OCC2(CCN(c3cnc(Sc4ccnc(N)c4Cl)c(N)n3)CC2)C1N | > 100 nM | > 100 nM | > 100 nM | 83.3 nM | > 100 nM | 95.9% | 96.1% | 92.4% | 71.3% | 80.1% | 80.7% | 76.6% | 94.3% | 81.1% | 75.5% | 93.2% | 95.5% | 104% | 97.9% | 104% | viability, T/C (second compound 0.1 µM, first compound 0.1 µM): 81.6%; viability, T/C (second compound 0.316 µM, first compound 0.1 µM): 78.1%; viability, T/C (second compound 1 µM, first compound 0.1 µM): 79.5%; viability, T/C [21]: 56.4%; viability, T/C [22]: 53%; viability, T/C [23]: 48.7%; viability, T/C [24]: 51.1%; viability, T/C [25]: 54.5%; viability, T/C (second compound 3.16 µM, first compound 0.1 µM): 48.8%; outcome [26]: inactive; outcome [27]: inactive; viability, T/C [28]: 52.6%; outcome [29]: inactive; viability, T/C [30]: 50.9%; viability, T/C (second compound 10 µM, first compound 0.1 µM): 55.4% |
| CCN1CCN(Cc2ccc(Nc3ncc(F)c(-c4cc(F)c5nc(C)n(C(C)C)c5c4)n3)nc2)CC1 |  |  |  |  |  |  |  |  |  |  |  |  |  |  |  |  |  |  |  |  | viability, T/C (compound 0.01 µM): 92.1% [middle of 5 runs]; viability, T/C (compound 0.1 µM): 82.8% [middle of 5 runs]; viability, T/C (compound 0.316 µM): 95.5% [middle of 5 runs]; viability, T/C (compound 1 µM): 106% [middle of 5 runs]; IC50 (curve of compound): > 1000 nM |
| CC(=O)Nc1cccc(-n2c(=O)n(C3CC3)c(=O)c3c(Nc4ccc(I)cc4F)n(C)c(=O)c(C)c32)c1 + CC1OCC2(CCN(c3cnc(Sc4ccnc(N)c4Cl)c(N)n3)CC2)C1N | 4.28 nM | 2.46 nM | 0.405 nM | < 0.1 nM | < 0.1 nM | 87.2% | 65.8% | 55.5% | 35.6% | 13.1% | 74.1% | 61% | 45.5% | 28% | 13.5% | 55.4% | 42.6% | 28.4% | 27.4% | 7.28% | viability, T/C (second compound 0.1 µM, first compound 0.0001 µM): 78.4%; viability, T/C (second compound 0.316 µM, first compound 0.0001 µM): 67%; viability, T/C (second compound 1 µM, first compound 0.0001 µM): 57.4%; viability, T/C (second compound 3.16 µM, first compound 0.0001 µM): 39.7%; viability, T/C [21]: 31.9%; viability, T/C [22]: 23.3%; viability, T/C [23]: 12.7%; viability, T/C [24]: 9.04%; viability, T/C [25]: 5.79%; viability, T/C (second compound 10 µM, first compound 0.0001 µM): 31.4%; viability, T/C [26]: 23.7%; viability, T/C [27]: 14.7%; viability, T/C [28]: 10.9%; viability, T/C [29]: 17.6%; viability, T/C [30]: 8.53% |
